Test [1] has as its system primary cultured hippocampal neurons. Nature of the test: MQAE intracellular chloride measurement in primary cultured hippocampal neurons. It counts as cell-based, mouse. The text has this:
Therefore, we hypothesized that bilirubin activation of WNK1 kinase activity might affect intracellular chloride levels. […] This was detected using the sensitive molecular probe N‐(Ethoxycarbonylmethyl)‐6‐Methoxyquinolinium Bromide (MQAE), as indicated by a reduction in MQAE fluorescence intensity (Figure 4C,E).^[ [32] ^]
(§1) To ascertain whether bilirubin regulates chloride ions through WNK1, we generated Wnk1 gene knockout primary cultured neurons. We achieved neuron‐specific deletion of Wnk1 in hippocampal neurons by transducing primary neurons isolated from Wnk1^flox/flox embryonic mice with a lentivirus expressing hSyn‐Cre‐EGFP.^[ [33], [34] ^] […] Intracellular chloride concentration is crucial for modulating inhibitory synaptic transmission and, consequently, neuronal excitability.
Since bilirubin‐induced activation of WNK1 kinase activity increases [Cl⁻]i in neurons, we sought to elucidate the downstream effector proteins of WNK1 that are involved in this process. Neuronal [Cl⁻]i is primarily regulated by the Cl⁻‐K⁺ symporter KCC2, with additional modulation by factors such as the Na⁺‐K⁺‐Cl⁻ co‐transporter NKCC1, GABAA receptors, and glycine receptors (GlyR), all of which contribute to [Cl⁻]i homeostasis.^[ [31] ^] To investigate the mechanism underlying bilirubin‐induced changes in [Cl⁻]i, we selectively targeted these proteins using pharmacological inhibitors (VU0463271 for KCC2, bumetanide for NKCC1, bicuculline for GABAA receptors, and strychnine for GlyR) and activated KCC2 using CLP257.^[ [35], [36] ^] […] The bilirubin‐induced effect on [Cl⁻]i was not observed in primary astrocytes (Figure S15A,B, Supporting Information) or the HEK 293T cell line (Figure S15C, Supporting Information), both of which lacked KCC2 expression (Figure S16A,B, Supporting Information), further confirming that the effects of bilirubin and WNK1 on [Cl⁻]i elevation are dependent on KCC2.
Intracellular chloride concentration ([Cl⁻]i) was measured using the MQAE fluorescent dye (Life Technologies) following established protocols (Zhang, Lee et al. 2015). […]

Another test addresses T1, full-length hWNK1 (Homo sapiens, UniProt Q9H4A3).
T1 construct: We overexpressed full‐length WNK1 fused with Green Fluorescent Protein (GFP); expressed in transfected cells; host or cells: HEK293T
Nature of the test: MicroScale Thermophoresis (MST), EGFP-tagged full-length WNK1 in HEK293T cell lysates. It counts as binding. Particulars: 15 min incubation, lysates of EGFP-WNK1 expressing HEK293T cells. How it is done:
To validate the direct binding of bilirubin to WNK1, we performed a Microscale Thermophoresis (MST) analysis, which assesses the binding capacity of a compound by measuring the movement of proteins over a microscopic temperature gradient.^[ [26], [27] ^] We overexpressed full‐length WNK1 fused with Green Fluorescent Protein (GFP) in HEK‐293 cells, incubated the lysates with bilirubin at varying dilutions, and subjected them to precise MST measurements in capillaries. […] Furthermore, biliverdin, a structurally similar intermediate product generated before bilirubin formation, was used as a control.
All WNK1 clones were derived from the original untagged hWNK1 cDNA (NM_018979), which was modified and subcloned into the pcDNA3.1, referred to as “full‐length WNK1” throughout this study. Truncated constructs, including 1–190aa, 191–491aa, 1–491aa, and 491–2382aa fragments, were generated by PCR using the full‐length template and subsequently ligated into linearized pcDNA3.1 vectors. WNK2 was obtained from Addgene Plasmid #24569, and WNK3 was obtained from Addgene Plasmid #81723. Both were subjected to base modifications and cloned into pcDNA3.1. The WNK4 clone was derived from hWNK4 cDNA (NM_032387.5), modified, and subcloned into the pCMV3‐C‐GFPSpark vector.
In HEK293T cells, proteins tagged with green fluorescent protein (GFP) were expressed. […]

The next test concerns the target T2, hWNK1 (181–507) (Homo sapiens, UniProt Q9H4A3).
T2 construct: the amino acid fragment 181–507 of human WNK1 (hWNK1)
Kind of test: ADP-Glo kinase assay, purified hWNK1 kinase domain. It counts as biochemical. Particulars: ADP production, luminescence normalized to reactions lacking bilirubin; 12 serial dilutions from 20 µM; read-out: EC50, activation of WNK1 kinase activity. The text has this:
Given the binding of bilirubin to the kinase domain of WNK1, we aimed to explore its effect on WNK1 with a particular focus on its kinase activity. To evaluate WNK1 kinase activity, we utilized an in vitro kinase enzyme assay system to quantify ADP production by the amino acid fragment 181–507 of human WNK1 (hWNK1) over a range of bilirubin concentrations. The kinase‐dead WNK1 mutant hWNK1(181–507 S382A) served as a negative control (Figure S10, Supporting Information).^[ [30] ^]
WNK1 kinase activity was measured using the ADP‐Glo Kinase Assay (Promega, Cat. V9101) following the manufacturer's instructions. Purified protein was incubated with bilirubin across a range of 12 serially diluted concentrations, beginning at a maximum concentration of 20 µM. After the incubation period, luminescence was recorded using a microplate reader (Synergy H1M, BioTek)
(In general: In ADP-Glo the light output rises with the ADP produced.)

Test [2] deals with cochlear nuclei and hippocampus neurons. Nature of the test: Neuronal excitability in cochlear nuclei and hippocampus neurons. It counts as cell-based.
From the text: as §1

T1 sequence (Q9H4A3 whole entry, the tested form may be a part): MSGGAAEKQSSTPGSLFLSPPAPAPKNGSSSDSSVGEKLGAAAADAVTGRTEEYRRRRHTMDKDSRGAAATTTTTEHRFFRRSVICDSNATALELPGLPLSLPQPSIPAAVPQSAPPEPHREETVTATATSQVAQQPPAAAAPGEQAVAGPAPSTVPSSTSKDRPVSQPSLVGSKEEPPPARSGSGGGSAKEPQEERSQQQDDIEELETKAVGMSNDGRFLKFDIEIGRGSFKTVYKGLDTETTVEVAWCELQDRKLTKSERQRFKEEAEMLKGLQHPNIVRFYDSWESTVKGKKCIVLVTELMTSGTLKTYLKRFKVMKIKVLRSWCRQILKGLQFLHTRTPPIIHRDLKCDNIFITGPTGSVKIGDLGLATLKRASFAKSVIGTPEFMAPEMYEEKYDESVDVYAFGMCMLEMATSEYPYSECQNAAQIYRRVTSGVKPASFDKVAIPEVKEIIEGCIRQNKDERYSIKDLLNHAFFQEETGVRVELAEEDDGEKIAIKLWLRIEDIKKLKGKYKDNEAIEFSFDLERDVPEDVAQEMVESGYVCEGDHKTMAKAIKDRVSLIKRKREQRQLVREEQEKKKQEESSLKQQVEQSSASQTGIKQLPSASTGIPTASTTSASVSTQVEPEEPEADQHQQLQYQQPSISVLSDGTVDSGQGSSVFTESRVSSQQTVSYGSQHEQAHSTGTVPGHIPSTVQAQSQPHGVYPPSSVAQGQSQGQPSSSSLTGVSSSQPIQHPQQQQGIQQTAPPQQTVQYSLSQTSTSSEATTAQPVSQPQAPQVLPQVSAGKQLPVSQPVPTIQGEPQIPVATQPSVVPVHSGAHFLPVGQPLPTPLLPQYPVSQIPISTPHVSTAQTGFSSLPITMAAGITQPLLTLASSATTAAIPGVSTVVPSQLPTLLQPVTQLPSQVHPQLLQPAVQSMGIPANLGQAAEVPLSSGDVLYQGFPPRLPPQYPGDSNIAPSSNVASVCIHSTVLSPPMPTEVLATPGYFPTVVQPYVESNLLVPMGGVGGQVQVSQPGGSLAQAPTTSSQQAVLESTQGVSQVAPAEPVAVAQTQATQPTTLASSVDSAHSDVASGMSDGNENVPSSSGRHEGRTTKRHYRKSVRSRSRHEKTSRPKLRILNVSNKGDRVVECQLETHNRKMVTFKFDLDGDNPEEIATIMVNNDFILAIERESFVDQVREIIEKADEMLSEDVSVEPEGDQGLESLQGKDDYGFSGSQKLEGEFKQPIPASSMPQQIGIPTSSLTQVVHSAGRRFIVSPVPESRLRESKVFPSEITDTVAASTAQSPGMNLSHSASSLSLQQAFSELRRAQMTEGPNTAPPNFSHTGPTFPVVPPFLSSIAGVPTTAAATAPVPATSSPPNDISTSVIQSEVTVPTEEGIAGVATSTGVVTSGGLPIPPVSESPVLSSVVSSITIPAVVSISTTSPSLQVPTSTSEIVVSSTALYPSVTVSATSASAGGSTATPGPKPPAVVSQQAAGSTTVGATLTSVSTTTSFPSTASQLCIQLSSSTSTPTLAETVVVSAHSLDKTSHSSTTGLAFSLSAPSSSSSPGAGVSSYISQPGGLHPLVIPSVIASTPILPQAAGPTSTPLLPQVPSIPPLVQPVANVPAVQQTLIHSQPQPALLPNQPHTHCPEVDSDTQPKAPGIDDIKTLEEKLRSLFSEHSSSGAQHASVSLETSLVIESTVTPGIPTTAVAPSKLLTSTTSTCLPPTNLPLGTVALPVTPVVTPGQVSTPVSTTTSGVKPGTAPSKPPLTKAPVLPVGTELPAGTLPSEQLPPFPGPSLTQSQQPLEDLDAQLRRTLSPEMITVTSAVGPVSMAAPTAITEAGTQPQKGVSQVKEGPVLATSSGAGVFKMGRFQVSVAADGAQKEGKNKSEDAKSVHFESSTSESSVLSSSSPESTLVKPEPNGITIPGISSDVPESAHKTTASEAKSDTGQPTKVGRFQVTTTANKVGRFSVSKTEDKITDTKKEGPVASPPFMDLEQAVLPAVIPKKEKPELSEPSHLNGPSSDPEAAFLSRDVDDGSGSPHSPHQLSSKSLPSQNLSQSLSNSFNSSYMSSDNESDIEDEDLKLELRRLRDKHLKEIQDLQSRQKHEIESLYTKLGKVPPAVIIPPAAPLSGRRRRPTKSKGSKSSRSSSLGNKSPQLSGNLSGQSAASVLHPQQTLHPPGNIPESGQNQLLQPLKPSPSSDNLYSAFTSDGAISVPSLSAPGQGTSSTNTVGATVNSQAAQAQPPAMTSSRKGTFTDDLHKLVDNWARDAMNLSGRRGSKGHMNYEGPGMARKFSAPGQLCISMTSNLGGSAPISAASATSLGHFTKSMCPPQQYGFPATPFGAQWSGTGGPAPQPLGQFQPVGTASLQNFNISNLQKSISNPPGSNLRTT
T2 sequence (Q9H4A3 181-507): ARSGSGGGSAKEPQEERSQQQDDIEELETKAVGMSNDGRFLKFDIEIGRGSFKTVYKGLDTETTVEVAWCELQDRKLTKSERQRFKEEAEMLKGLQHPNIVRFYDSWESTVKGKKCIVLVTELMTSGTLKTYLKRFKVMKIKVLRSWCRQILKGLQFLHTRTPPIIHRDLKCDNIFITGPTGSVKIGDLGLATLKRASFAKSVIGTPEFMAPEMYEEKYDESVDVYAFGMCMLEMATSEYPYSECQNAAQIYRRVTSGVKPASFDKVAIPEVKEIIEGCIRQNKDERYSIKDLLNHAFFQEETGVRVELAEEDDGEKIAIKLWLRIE

Turning to `C=CC1=C(C)/C(=C/c2[nH]c(Cc3[nH]c(/C=C4\NC(=O)C(C)=C4C=C)c(C)c3CCC(=O)O)c(CCC(=O)O)c2C)NC1=O` [bilirubin, Bilirubin], in test [1] (Wnk1 knockout primary neurons (hSyn-Cre lentivirus)), the “[Cl−]i levels after Wnk1 deletion” value is reported as “failed to increase”. In addition, the intracellular chloride concentration entry in test [1] (varying concentrations, 30 min, MQAE fluorescence) is reported as “significant increase”. The affinity at full-length hWNK1, expressed as Kd, was 67.2 nM. Besides, the EC50 on hWNK1 (181–507) was found to be 896 nM. In addition, the neural excitability entry in test [2] was “induces neural hyperexcitability”.

What is called Kd is the constant that tells how readily two partners part at equilibrium. Read a high Kd as weaker binding. What is called EC50 is the concentration needed to bring the measured effect to its halfway point.

For the origin of these results see publication PMC12362796, “Bilirubin Targeting WNK1 to Alleviate NLRP3‐Mediated Neuroinflammation” (Advanced Science, 2025).
